Assays:
[1] = biological target: Komplex aus SEQ ID NO: 12 und SEQ ID NO: 16 (Mycosarcoma maydis (Ustilago maydis), UniProt A0A0D1E894); experiment: IMAP fluorescence polarisation assay, inhibition of Aurora kinase (AK/AKA complex); type: biochemical, U. maydis; conditions: final enzyme concentration 2 ng/µl, final ATP 35 µM, reaction time 50 min
From the text: Assay 3: Für den kommerziell erhältlichen IMAP Assay (Molecular Devices) sind 2 Substrate für humane Aurorakinasen (Kemptide, Cat #R7331, Sequenz 5TAMRA-LRRASLG-OH und PKAtide, Cat #R7250, Lot #130188, Sequenz 5FAM-GRTGRRNSI-NH2) kommerziell erwerbbar. Der Assay wurde nach Herstellerangaben durchgeführt. • IMAP Progressive Binding Reagent: Cat #R7284, Lot #143859 • IMAP Progressive Binding Buffer A: Cat #R7285, Lot #42898 • IMAP 5x Reaction Buffer: Cat #R7206, Lot #33060
Der IMAP Fluoreszenz-Polarisations-Assay (Molecular Devices) beruht auf der spezifschen, hochafmen Interaktion zwischen Phosphatgruppen und trivalenten Metallionen. Durch die Kinasereaktion wird ein fluoreszentes Substrat phosphoryliert, welches daraufhin von den in der Stop-Lösung enthaltenen Metall-Kügelchen spezifisch gebunden wird. Durch diese Interaktion erhöht sich die Fluoreszenzpolarisation, was die Bestimmung der Kinaseaktivität ermöglicht. Der Assay wurde nach Angaben des Herstellers wie folgt ausgeführt: • 1 Vol. Inhibitor in 4% DMSO bzw. 4% DMSO • 1 Vol. Enzymlösung • 2 Vol. ATP/Substrat • 12 Vol. Stoplösung • Inkubation bei RT 30 min.
Enzymlösung: z. […]

U. maydis = experiment: ED50 determination, growth inhibition of U. maydis in liquid culture; type: cell-based; conditions: concentration at which growth in liquid culture is inhibited by 50%; 3 days, 20°C, OD at 600 nm
Procedure: Der ED50 Wert ist die Konzentration einer Verbindung, bei der das Wachstum von U. maydis in Flüssigkultur zu 50% gehemmt wird. Verbindungen für ED50-Bestimmungen wurden in Methanol + 4 g/l Emulgator (z. B. PS 16 von Bayer AG) zu 666,67facher Endkonzentration gelöst. 15 µl jeder Verbindung werden in 7 Konzentrationen bei getrocknet. Flüssigkulturen von U. maydis in Difco Potato Dextrose Broth (BD, Cat No #254920) wurden auf eine OD600 ~ 0,1 eingestellt und je 200 µl dieser Suspension zugegeben. Die Kulturen wurden 3 Tage bei 20°C, 600 Upm und 80% Luftfeuchte inkubiert. Anschließend wurde die OD bei 600 nm bestimmt und gegen die Inhibitor-Konzentration der Verbindung 1 aufgetragen. Als positive Kontrolle wurde Euparen (Dichlorfluarid; CAS 1085-98-9) verwendet, als negative Kontrolle Methanol + PS 16 ohne Inhibitor. Aus der gemessenen OD600 wurde der ED50-Wert bestimmt (Abb. 5). Der ED50 Wert der Verbindung 1 wurde zu 21,8 ppm ermittelt, der ED50 Wert von Dichlorfluarid wurde zu 1 ppm ermittelt. [formula] [formula] [formula] [formula] [formula] [formula] [formula] [formula] [formula] [formula] [formula] [formula] [formula] [formula] [formula] [formula] [formula] [formula] [formula] [formula] [formula] [formula] [formula] [formula] [formula] [formula] [formula] [formula]

Chain of Komplex aus SEQ ID NO: 12 und SEQ ID NO: 16 (A0A0D1E894 entry or part of it): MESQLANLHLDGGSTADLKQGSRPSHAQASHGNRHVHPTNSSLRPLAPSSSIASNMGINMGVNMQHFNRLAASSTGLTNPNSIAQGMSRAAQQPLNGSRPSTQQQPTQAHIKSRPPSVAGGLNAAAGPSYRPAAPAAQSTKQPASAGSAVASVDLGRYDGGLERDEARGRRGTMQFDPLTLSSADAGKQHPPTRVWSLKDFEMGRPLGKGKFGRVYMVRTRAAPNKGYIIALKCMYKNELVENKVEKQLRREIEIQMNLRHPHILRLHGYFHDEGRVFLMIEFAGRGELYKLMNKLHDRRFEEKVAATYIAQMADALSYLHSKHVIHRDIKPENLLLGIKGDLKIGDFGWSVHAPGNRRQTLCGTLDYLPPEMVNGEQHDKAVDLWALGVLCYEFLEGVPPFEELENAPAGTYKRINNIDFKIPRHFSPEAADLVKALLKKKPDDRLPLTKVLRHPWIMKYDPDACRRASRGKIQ

SMILES	IC50 [1] [nM]	ED50 Wert (U. maydis)
COCCOc1ccc(Nc2ncc(Cl)c(NC3CC3)n2)cc1 [Verbindung 1]	8.8	21,8 ppm
CN[C@@H]1C[C@H]2O[C@@](C)([C@@H]1OC)n1c3ccccc3c3c4c(c5c6ccccc6n2c5c31)C(=O)NC4 [Staurosporin]	2.1	–
CN(C)S(=O)(=O)N(SC(F)(Cl)Cl)c1ccccc1 [Dichlorfluarid]	–	1 ppm
